Test results from patent US20030203373A1 (priority 2002, published 2003).

T1: angiotensin-converting-enzyme derived from pig kidney (pig) (UniProt F1RRW5)
T1 sequence (looked up): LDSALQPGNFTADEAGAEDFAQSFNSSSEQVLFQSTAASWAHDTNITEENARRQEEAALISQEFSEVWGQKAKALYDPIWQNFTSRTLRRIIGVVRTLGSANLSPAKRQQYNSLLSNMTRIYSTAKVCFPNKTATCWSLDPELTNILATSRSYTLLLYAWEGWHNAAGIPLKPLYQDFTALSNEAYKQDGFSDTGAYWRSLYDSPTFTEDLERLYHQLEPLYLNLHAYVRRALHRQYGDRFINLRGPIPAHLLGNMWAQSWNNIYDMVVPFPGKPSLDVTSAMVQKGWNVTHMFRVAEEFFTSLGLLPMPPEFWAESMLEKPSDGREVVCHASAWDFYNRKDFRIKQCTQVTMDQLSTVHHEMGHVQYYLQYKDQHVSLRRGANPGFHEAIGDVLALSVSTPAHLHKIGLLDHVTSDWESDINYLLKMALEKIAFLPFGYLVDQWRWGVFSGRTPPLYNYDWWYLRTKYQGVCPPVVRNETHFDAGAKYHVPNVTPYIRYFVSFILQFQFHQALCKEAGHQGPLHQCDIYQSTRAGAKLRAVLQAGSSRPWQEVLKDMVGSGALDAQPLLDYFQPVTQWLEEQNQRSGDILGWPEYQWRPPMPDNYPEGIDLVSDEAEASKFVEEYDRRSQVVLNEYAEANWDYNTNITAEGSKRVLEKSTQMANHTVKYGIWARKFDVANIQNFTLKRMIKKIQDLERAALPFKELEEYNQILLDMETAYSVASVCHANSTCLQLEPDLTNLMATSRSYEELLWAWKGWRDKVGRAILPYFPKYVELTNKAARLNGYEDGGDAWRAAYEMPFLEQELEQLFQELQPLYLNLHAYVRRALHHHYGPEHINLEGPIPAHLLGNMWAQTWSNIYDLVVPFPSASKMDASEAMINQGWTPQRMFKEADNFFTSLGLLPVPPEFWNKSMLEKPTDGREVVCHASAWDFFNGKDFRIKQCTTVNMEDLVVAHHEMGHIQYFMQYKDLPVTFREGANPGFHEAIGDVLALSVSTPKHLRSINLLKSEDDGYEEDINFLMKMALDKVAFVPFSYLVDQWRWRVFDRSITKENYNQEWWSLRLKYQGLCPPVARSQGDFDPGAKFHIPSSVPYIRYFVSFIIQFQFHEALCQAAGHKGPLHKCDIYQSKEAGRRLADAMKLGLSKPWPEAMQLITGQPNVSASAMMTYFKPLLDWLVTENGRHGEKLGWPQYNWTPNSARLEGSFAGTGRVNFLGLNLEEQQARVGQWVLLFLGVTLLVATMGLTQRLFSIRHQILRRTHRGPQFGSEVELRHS


Key:
[1] = tested on: normotensive Wister rats; assay: Bradykinin-potentiating effect on blood pressure in anaesthetized normotensive rats; assay type: in vivo, rat; settings: Captopril 1.5 × 10^−4 M + Bradykinin 2.5 × 10^−6 M
Procedure: In the in vivo experiments with normotensive rats the animals were previously anaesthetized and after blood pressure stabilization treated with a constant amount of bradykinin. Subsequently, either Captopril or human BPP were administered, again followed by a constant amount of bradykinin. Afterwards the maximum blood pressure drop was determined and, on the basis of bradykinin as a factor 1, the potentiating factor was determined. In the same way, the systolic and diastolic blood pressure, the percentage middle pressure decrease and the time required to come back to the baseline values were measured (see tables 4a to 4j). A detailed experimental description is given below.
2. Measurement of Blood Pressure in Normotensive and Hypertensive Rats
The trials were conducted on female anaesthetized normotensive Wister rats with weight ranging from 210 to 240 g.
The peptide pANP48-57 used for the in vivo assays was synthesized by Biosynthan (Berlin) with a HPLC-determined purity of 98%.
Anaesthetizing was performed by i.p.-administration of 1 ml/kg Ketavit (100 mg/ml)+Rampun (2%).
In order to conduct the blood pressure measurement, a polyethylene catheter was introduced into the Aorta femuralis and connected with a pressure transducer. A Statham-P23A pressure-transducer was linked to a Gould Polygraph and used to determine the arterial blood pressure. A Hg-manometer was used to calibrate the system.
All substances were dissolved and diluted in a physiological sodium chloride solution and introduced into the Vena jugularis via a catheter.
After stabilization of blood pressure (after about 10 minutes) […] body weight of a 2,5 μM bradykinin-solution (Sigma) was administered.
The middle pressure was determined from the measured diastolic (pd) and systolic (ps) blood pressure by using the following formula: pm=(ps−Pd)×0,42+pd.

[2] = target: T1, angiotensin-converting-enzyme derived from pig kidney (pig); assay: cell-based or functional assay

| Molecule | potentiating factor (factor by which the blood pressure reducing effect of Bradykinin is potentiated, Bradykinin = 1) [1] | maximal drop of blood pressure ([1]; normotensive rats) | IC50, ACE inhibition [2] [µM] |
| --- | --- | --- | --- |
| C[C@H](CS)C(=O)N1CCC[C@H]1C(=O)O [Captopril, reference compound] | 2 | 56% ± 17.3 |  |
| QVLSEPNEEAGAALSPLPEVPP (N-terminal pyroglutamate) [S492] |  |  | > 300 |
